Laboratory results taken from patent publication US9861680B2, “Immunomodulators” (BRISTOL-MYERS SQUIBB COMPANY, priority 2014, dated 2018).
Numbered stars: 1 amine (or outer) side, 2 acyl side, 3 side chain; on linkers, the order of the positions; unused ones are H or OH. Bridge positions count the residues as written; N and C are the ends. Square brackets hold non-standard residues; d marks the D form. Peptide text beside a SMILES is read from it. X3 = CCCC[C@@H](C(=O)[*:2])N(CCO)[*:1]; X5 = CCCC[C@@H](C(=O)[*:2])N(CC)[*:1]; X7 = COCCN([C@@H](C)C(=O)[*:2])[*:1]; X2 = C[C@@H](C(=O)[*:2])N(CCN)[*:1]; Gly(N-2-aminoethyl) = NCCNCC(=O)O; Hyp = O=C(O)[C@@H]1C[C@@H](O)CN1; Gly(N-CH2CH2OH) = O=C(O)CNCCO; NMeNle = CCCC[C@H](NC)C(=O)O; NMeA = CN[C@@H](C)C(=O)O; Dab = NCC[C@H](N)C(=O)O; Nme = COCCNCC(=O)O

target: T1, PD-1-Ig binding to PD-L1-TVMV-His (PD-L1-His) (Homo sapiens, UniProt Q9NZQ7); test: PD-1/PD-L1 Homogenous Time-Resolved Fluorescence (HTRF) binding assay; conditions: numeric value; PD-L1-His 10 nM, PD-1-Ig 20 nM
T1 construct: hPDL1(19-239)-TVMV-His; made in house; host or cells: HEK293T
T1 sequence (Q9NZQ7 with tags, fused parts or gaps): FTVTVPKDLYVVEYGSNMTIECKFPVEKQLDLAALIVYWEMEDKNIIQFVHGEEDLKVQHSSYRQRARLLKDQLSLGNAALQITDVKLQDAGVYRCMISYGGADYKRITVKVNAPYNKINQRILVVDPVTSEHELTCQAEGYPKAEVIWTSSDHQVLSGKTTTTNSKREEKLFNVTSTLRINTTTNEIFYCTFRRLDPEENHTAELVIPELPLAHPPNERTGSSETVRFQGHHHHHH
From the text: Methods for Testing the Ability of Macrocyclic Peptides to Compete for the Binding of Pd-1 to Pd-L1 Using Homogenous Time-Resolved Fluorescence (HTRF) Binding Assays
The ability of the macrocyclic peptides of the present disclosure to bind to PD-L1 was investigated using a PD-1/PD-L1 Homogenous Time-Resolved Fluorescence (HTRF) binding assay.
Homogenous Time-Resolved Fluorescence (HTRF) Assays of Binding of Soluble PD-1 to Soluble PD-L1. Soluble PD-1 and soluble PD-L1 refers to proteins with carboxyl-end truncations that remove the transmembrane-spanning regions and are fused to heterologous sequences, specifically the Fc portion of the human immunoglobuling G sequence (Ig) or the hexahistidine epitope tag (His). All binding studies were performed in an HTRF assay buffer consisting of dPBS supplemented with 0.1% (w/v) bovine serum albumin and 0.05% (v/v) Tween-20. For the PD-1-Ig/PD-L1-His binding assay, inhibitors were pre-incubated with PD-L1-His (10 nM final) for 15 m in 4 μl of assay buffer, followed by addition of PD-1-Ig (20 nM final) in 1 μl of assay buffer and further incubation for 15 m. PD-L1 fusion proteins from either human, cynomologous macaques, mouse, or other species were used. HTRF detection was achieved using europium crypate-labeled anti-Ig monoclonal antibody (1 nM final) and allophycocyanin (APC) labeled anti-His monoclonal antibody (20 nM final). Antibodies were diluted in HTRF detection buffer and 5 μl was dispensed on top of binding reaction. The reaction was allowed to equilibrate for 30 minutes and signal (665 nm/620 nm ratio) was obtained using an EnVision fluorometer. Additional binding assays were established between PD-1-Ig/PD-L2-His (20 and 5 nM, respectively), CD80-His/PD-L1-Ig (100 and 10 nM, respectively) and CD80-His/CTLA4-Ig (10 and 5 nM, respectively). Binding/competition studies between biotinylated Compound No. 71 and human PD-L1-His were performed as follows. Macrocyclic peptide inhibitors were pre-incubated with PD-L1-His (10 nM final) for 60 minutes in 4 μl of assay buffer followed by addition of biotinylated Compound No. 71 (0.5 nM final) in 1 μl of assay buffer. Binding was allowed to equilibrate for 30 minutes followed by addition of europium crypated labeled Streptavidin (2.5 pM final) and APC-labeled anti-His (20 nM final) in 5 μl of HTRF buffer. The reaction was allowed to equilibrate for 30 m and signal (665 nm/620 nm ratio) was obtained using an EnVision fluorometer.
Recombinant Proteins. Carboxyl-truncated human PD-1 (amino acids 25-167) with a C-terminal human Ig epitope tag [hPD-1 (25-167)-3S-IG] and human PD-L1 (amino acids 18-239) with a C-terminal His epitope tag [hPD-L1(19-239)-tobacco vein mottling virus protease cleavage site (TVMV)-His] were expressed in HEK293T cells and purified sequentially by recombinant Protein A affinity chromatography and size exclusion chromatography. Human PD-L2-His (Sino Biologicals), CD80-His (Sino Biologicals), CTLA4-Ig (RnD Systems) were all obtained through commercial sources.
Ranges are as follows: A=0.10-10 μM; B=0.01-0.099 μM; C=0.005-0.0099 μM.

Row | IC50 | Compound
1 | 0.00612 µM | CCCC[C@H]1C(=O)N(C)[C@@H](CCCC)C(=O)N[C@@H](CC(C)C)C(=O)N[C@H](C(=O)NCC(N)=O)CSCC(=O)N[C@@H](Cc2ccc(O)cc2)C(=O)N(C)[C@@H](C)C(=O)N[C@@H](CC(N)=O)C(=O)N2CCC[C@H]2C(=O)N[C@@H](Cc2cnc[nH]2)C(=O)N[C@@H](CCC(=O)O)C(=O)N(CCN)CC(=O)N[C@@H](Cc2c[nH]c3ccccc23)C(=O)N[C@@H](CCN)C(=O)N[C@@H](Cc2c[nH]c3ccccc23)C(=O)N1C [Example 3011] ({CH2CO}-Y[NMeA]NPHE[Gly(N-2-aminoethyl)]W[Dab]W[NMeNle][NMeNle]LCG-NH2; thioether N-14)
2 | 0.03 µM | CCCC[C@H]1C(=O)N(C)[C@@H](CCCC)C(=O)N[C@@H](CC(C)C)C(=O)N[C@H](C(=O)NCC(N)=O)CSCC(=O)N[C@@H](Cc2ccc(O)cc2)C(=O)N(C)[C@@H](C)C(=O)N[C@@H](CC(N)=O)C(=O)N2CCC[C@H]2C(=O)N[C@@H](Cc2cnc[nH]2)C(=O)N[C@@H](CCC(=O)O)C(=O)N(CC(=O)O)CC(=O)N[C@@H](Cc2c[nH]c3ccccc23)C(=O)N[C@@H](CCN)C(=O)N[C@@H](Cc2c[nH]c3ccccc23)C(=O)N1C [Example 3005]

same assay, conditions: range class; PD-L1-His 10 nM, PD-1-Ig 20 nM

Row | IC50 | Compound
3 | 0.01 to 0.099 µM | CCCC[C@H]1C(=O)N(C)[C@@H](CCCC)C(=O)N[C@@H](CC(C)C)C(=O)N[C@H](C(=O)NCC(N)=O)CSCC(=O)N[C@@H](Cc2ccc(O)cc2)C(=O)N(C)[C@@H](C)C(=O)N[C@@H](CC(N)=O)C(=O)N(CCN)CC(=O)N[C@@H](Cc2cnc[nH]2)C(=O)N[C@@H](CCC(=O)O)C(=O)N2C[C@H](O)C[C@H]2C(=O)N[C@@H](Cc2c[nH]c3ccccc23)C(=O)N[C@@H](CCN)C(=O)N[C@@H](Cc2c[nH]c3ccccc23)C(=O)N1C [Example 3014] ({CH2CO}-Y[NMeA]N[Gly(N-2-aminoethyl)]HE[Hyp]W[Dab]W[NMeNle][NMeNle]LCG-NH2; thioether N-14)
4 | 0.01 to 0.099 µM | CCCC[C@H]1C(=O)N(C)[C@@H](CCCC)C(=O)N[C@@H](CC(C)C)C(=O)N[C@H](C(=O)NCC(N)=O)CSCC(=O)N[C@@H](Cc2ccc(O)cc2)C(=O)N(C)[C@@H](C)C(=O)N[C@@H](CC(N)=O)C(=O)N(CC(=O)O)CC(=O)N[C@@H](Cc2cnc[nH]2)C(=O)N[C@@H](CCC(=O)O)C(=O)N2C[C@H](O)C[C@H]2C(=O)N[C@@H](Cc2c[nH]c3ccccc23)C(=O)N[C@@H](CCN)C(=O)N[C@@H](Cc2c[nH]c3ccccc23)C(=O)N1C [Example 3015]
5 | 0.01 to 0.099 µM | CCCC[C@H]1C(=O)N(C)[C@@H](CCCC)C(=O)N[C@@H](CC(C)C)C(=O)N[C@H](C(=O)NCC(N)=O)CSCC(=O)N[C@@H](Cc2ccc(O)cc2)C(=O)N(CCN)[C@@H](C)C(=O)N[C@@H](CC(N)=O)C(=O)N2CCC[C@H]2C(=O)N[C@@H](Cc2cnc[nH]2)C(=O)N[C@@H](CCC(=O)O)C(=O)N2C[C@H](O)C[C@H]2C(=O)N[C@@H](Cc2c[nH]c3ccccc23)C(=O)N[C@@H](CCN)C(=O)N[C@@H](Cc2c[nH]c3ccccc23)C(=O)N1C [Example 3032] ({CH2CO}-Y[X2]NPHE[Hyp]W[Dab]W[NMeNle][NMeNle]LCG-NH2; thioether N-14)
6 | 0.01 to 0.099 µM | CCCC[C@H]1C(=O)N[C@@H](CC(C)C)C(=O)N[C@H](C(=O)NCC(N)=O)CSCC(=O)N[C@@H](Cc2ccc(O)cc2)C(=O)N(C)[C@@H](C)C(=O)N[C@@H](CC(N)=O)C(=O)N2CCC[C@H]2C(=O)N[C@@H](Cc2cnc[nH]2)C(=O)N[C@@H](CCC(=O)O)C(=O)N2C[C@H](O)C[C@H]2C(=O)N[C@@H](Cc2c[nH]c3ccccc23)C(=O)N[C@@H](CCN)C(=O)N[C@@H](Cc2c[nH]c3ccccc23)C(=O)N(CC)[C@@H](CCCC)C(=O)N1C [Example 3023] ({CH2CO}-Y[NMeA]NPHE[Hyp]W[Dab]W[X5][NMeNle]LCG-NH2; thioether N-14)
7 | 0.01 to 0.099 µM | CCCC[C@H]1C(=O)N[C@@H](CC(C)C)C(=O)N[C@H](C(=O)NCC(N)=O)CSCC(=O)N[C@@H](Cc2ccc(O)cc2)C(=O)N(C)[C@@H](C)C(=O)N[C@@H](CC(N)=O)C(=O)N2CCC[C@H]2C(=O)N[C@@H](Cc2cnc[nH]2)C(=O)N[C@@H](CCC(=O)O)C(=O)N2C[C@H](O)C[C@H]2C(=O)N[C@@H](Cc2c[nH]c3ccccc23)C(=O)N[C@@H](CCN)C(=O)N[C@@H](Cc2c[nH]c3ccccc23)C(=O)N(CCOC)[C@@H](C)C(=O)N1C [Example 3025] ({CH2CO}-Y[NMeA]NPHE[Hyp]W[Dab]W[X7][NMeNle]LCG-NH2; thioether N-14)
8 | 0.01 to 0.099 µM | CCCC[C@H]1C(=O)N(C)[C@@H](CCCC)C(=O)N[C@@H](CC(C)C)C(=O)N[C@H](C(=O)NCC(N)=O)CSCC(=O)N[C@@H](Cc2ccc(O)cc2)C(=O)N(C)[C@@H](C)C(=O)N[C@@H](CC(N)=O)C(=O)N2CCC[C@H]2C(=O)N[C@@H](Cc2cnc[nH]2)C(=O)N[C@@H](CCC(=O)O)C(=O)N(CCOC)CC(=O)N[C@@H](Cc2c[nH]c3ccccc23)C(=O)N[C@@H](CCN)C(=O)N[C@@H](Cc2c[nH]c3ccccc23)C(=O)N1C [Example 3006] ({CH2CO}-Y[NMeA]NPHE[Nme]W[Dab]W[NMeNle][NMeNle]LCG-NH2; thioether N-14)

The remaining lines, values behind:

Row | Compound | IC50
9 | CCCC[C@H]1C(=O)N[C@@H](CC(C)C)C(=O)N[C@H](C(=O)NCC(N)=O)CSCC(=O)N[C@@H](Cc2ccc(O)cc2)C(=O)N(C)[C@@H](C)C(=O)N[C@@H](CC(N)=O)C(=O)N2CCC[C@H]2C(=O)N[C@@H](Cc2cnc[nH]2)C(=O)N[C@@H](CCC(=O)O)C(=O)N2C[C@H](O)C[C@H]2C(=O)N[C@@H](Cc2c[nH]c3ccccc23)C(=O)N[C@@H](CCN)C(=O)N[C@@H](Cc2c[nH]c3ccccc23)C(=O)N(CCO)[C@@H](CCCC)C(=O)N1C [Example 3030] ({CH2CO}-Y[NMeA]NPHE[Hyp]W[Dab]W[X3][NMeNle]LCG-NH2; thioether N-14) | 0.01 to 0.099 µM
10 | CCCC[C@H]1C(=O)N(C)[C@@H](CCCC)C(=O)N[C@@H](CC(C)C)C(=O)N[C@H](C(=O)NCC(N)=O)CSCC(=O)N[C@@H](Cc2ccc(O)cc2)C(=O)N(CCO)CC(=O)N[C@@H](CC(N)=O)C(=O)N2CCC[C@H]2C(=O)N[C@@H](Cc2cnc[nH]2)C(=O)N[C@@H](CCC(=O)O)C(=O)N2C[C@H](O)C[C@H]2C(=O)N[C@@H](Cc2c[nH]c3ccccc23)C(=O)N[C@@H](CCN)C(=O)N[C@@H](Cc2c[nH]c3ccccc23)C(=O)N1C [Example 3045] ({CH2CO}-Y[Gly(N-CH2CH2OH)]NPHE[Hyp]W[Dab]W[NMeNle][NMeNle]LCG-NH2; thioether N-14) | 0.01 to 0.099 µM
11 | CCCC[C@H]1C(=O)N[C@@H](CC(C)C)C(=O)N[C@H](C(=O)NCC(N)=O)CSCC(=O)N[C@@H](Cc2ccc(O)cc2)C(=O)N(C)[C@@H](C)C(=O)N[C@@H](CC(N)=O)C(=O)N2CCC[C@H]2C(=O)N[C@@H](Cc2cnc[nH]2)C(=O)N[C@@H](CCC(=O)O)C(=O)N2C[C@H](O)C[C@H]2C(=O)N[C@@H](Cc2c[nH]c3ccccc23)C(=O)N[C@@H](CCN)C(=O)N[C@@H](Cc2c[nH]c3ccccc23)C(=O)N(CC(=O)O)[C@@H](C)C(=O)N1C [Example 3028] | 0.1 to 10 µM
12 | CCCC[C@H]1C(=O)N(C)[C@@H](CCCC)C(=O)N[C@@H](CC(C)C)C(=O)N[C@H](C(=O)NCC(N)=O)CSCC(=O)N[C@@H](Cc2ccc(O)cc2)C(=O)N(C)[C@@H](C)C(=O)N[C@@H](CC(N)=O)C(=O)N(CCO)CC(=O)N[C@@H](Cc2cnc[nH]2)C(=O)N[C@@H](CCC(=O)O)C(=O)N2C[C@H](O)C[C@H]2C(=O)N[C@@H](Cc2c[nH]c3ccccc23)C(=O)N[C@@H](CCN)C(=O)N[C@@H](Cc2c[nH]c3ccccc23)C(=O)N1C [Example 3016] ({CH2CO}-Y[NMeA]N[Gly(N-CH2CH2OH)]HE[Hyp]W[Dab]W[NMeNle][NMeNle]LCG-NH2; thioether N-14) | 0.01 to 0.099 µM
